From patent US20210330611A1, “THERAPY FOR NEUROLOGICAL DISEASES/DISORDERS” (priority 2020, published 2021) come the findings set out here.

Series [1] relates to fibrin-induced microglia activation. The series is described as follows: Image-based assay of fibrin-induced microglia activation (HTS and dose response). Format: cell-based, rat. Particulars: primary microglia HTS, fibrin stimulation, compounds at 10 μM; for inhibition at 10 µM: Rattus norvegicus, Microglia, read-out: Fibrin % inhibition.
In series [2] the test system is LPS-induced microglia activation. Nature of the series: Image-based assay of LPS-induced microglia activation (HTS and dose response). It counts as cell-based, rat. Particulars: primary microglia HTS, LPS stimulation, compounds at 10 μM; for inhibition at 10 µM: Rattus norvegicus, Microglia, read-out: LPS % inhibition.
For series [3], the system named is fibrin- and LPS-induced microglia activation. Nature of the series: cells. Format: cell-based, rat. Conditions: classification by fibrin and LPS inhibition, HTS at 10 μM.
Series [4] relates to primary rat microglia.
Series [5] has as its system primary rat microglia. Nature of the series: Cell toxicity (dead cells, size <150 μm2) in coated fibrin (cFib) assay.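 Further: share of dead cells sized under 150 µm2 at 10 µM in fibrin-stimulated microglia HTS.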 Particulars: primary microglia HTS, fibrin assay, dead cells (size <150 μm2), compounds at 10 μM.

Where a name gives a salt, the structure may show the parent alone. Read-outs that look alike come from different tables or passages of the source.

As a reminder, the inhibition is the change of the read-out against control, counted positive when it falls.

With `CO[C@H]1C[C@H](O[C@H]2[C@H](C)O[C@@H](O[C@@H]3/C(C)=C/C[C@@H]4C[C@@H](C[C@]5(C=C[C@H](C)[C@@H](C6CCCCC6)O5)O4)OC(=O)[C@@H]4C=C(C)[C@@H](O)[C@H]5OC/C(=C\C=C\[C@@H]3C)[C@]54O)C[C@@H]2OC)O[C@@H](C)[C@@H]1O` [Doramectin], the Fibrin % inhibition in series [1] was −9%. Further, the LPS % inhibition in series [2] amounted to 7%. For the same compound, in series [3], the “Quadrant (FIG. 5b)” value is recorded as “Q4”. For the same compound, the “LPS % cell toxicity” value in series [4] was 0%. The “Fibrin % cell toxicity” value in series [5] is on record as 1%.
For the compound `CCN1CC(CCN2CCOCC2)C(c2ccccc2)(c2ccccc2)C1=O` (centres unmarked) [Doxapram Hydrochloride], the inhibition at 10 µM in series [1] was -18%; in series [2], 9%. For the same compound, in series [3], the “Quadrant (FIG. 5b)” value is on record as “Q4”. The “LPS % cell toxicity” value in series [4] (rat) is recorded as 0%. Besides, the “Fibrin % cell toxicity” value in series [5] was 0%.
`COc1cc2nc(N3CCN(C(=O)C4COc5ccccc5O4)CC3)nc(N)c2cc1OC` (centres unmarked) [Doxazosin]: the values for the inhibition at 10 µM in series [1] and in series [2] were -26% and 6%, respectively. Moreover, the “Quadrant (FIG. 5b)” value in series [3] was “Q4”. In series [4] (rat), the “LPS % cell toxicity” value came out at 0%. In addition, the “Fibrin % cell toxicity” value in series [5] amounted to 0%.
Take `C[C@H]1c2cccc(O)c2C(=O)C2=C(O)[C@]3(O)C(=O)C(C(N)=O)=C(O)[C@@H](N(C)C)[C@@H]3[C@@H](O)[C@@H]21` [Doxycycline]: the inhibition at 10 µM in series [1] is -19%; in series [2] it was 18%. For the same compound, in series [3], the “Quadrant (FIG. 5b)” value is on record as “Q4”. Further, the “LPS % cell toxicity” value in series [4] (rat) was found to be 0%. Further, in series [5], the “Fibrin % cell toxicity” value was determined as 0%.
In the case of `CN(C)CCOC(C)(c1ccccc1)c1ccccn1` (centres unmarked) [Doxylamine], the inhibition at 10 µM in series [1] is -45%; in series [2], 17%. In addition, the “Quadrant (FIG. 5b)” value in series [3] is “Q4”. The “LPS % cell toxicity” value in series [4] (rat) was 0%. For the same compound, the “Fibrin % cell toxicity” value in series [5] is recorded as 1%.
The matching figures for `CCN(CC)CCOC(=O)C(c1ccccc1)C1CCCCC1` (centres unmarked) [Drofenine Hydrochloride]: -44%, 9%, “Q4”, 0% and 1%.
The matching figures for `OCC(O)CN1CCN(c2ccccc2)CC1` (centres unmarked) [Dropropizine]: -26%, 11%, “Q4”, 0% and 1%.
The corresponding values for `C[C@]12CCC(=O)C=C1[C@@H]1C[C@@H]1[C@H]1[C@@H]3[C@@H]4C[C@@H]4[C@@]4(CCC(=O)O4)[C@@]3(C)CC[C@@H]12` [Drospirenone] are 11%, 6%, “Q4”, 1% and 1%.
Turning to `CC(=O)[C@H]1CC[C@H]2[C@@H]3C=CC4=CC(=O)CC[C@@]4(C)[C@@H]3CC[C@]12C` [Dydrogesterone], the inhibition at 10 µM in series [1] is -11%; in series [2], 4%. In addition, the “Quadrant (FIG. 5b)” value in series [3] is recorded as “Q4”. For the same compound, the “LPS % cell toxicity” value in series [4] (rat) amounted to 0%. In addition, the “Fibrin % cell toxicity” value in series [5] stood at 0%.
As to `Cn1c(=O)c2c(ncn2CC(O)CO)n(C)c1=O` (centres unmarked) [Dyphylline], the inhibition at 10 µM is -7% in series [1] and -6% in series [2]. For the same compound, the “Quadrant (FIG. 5b)” value in series [3] is “Q4”. The “LPS % cell toxicity” value in series [4] (rat) was found to be 0%. Moreover, the “Fibrin % cell toxicity” value in series [5] is recorded as 0%.
For the compound `O=c1c2ccccc2[se]n1-c1ccccc1` [Ebselen], the inhibition at 10 µM in series [1] is -49%; in series [2], -1%. In addition, the “Quadrant (FIG. 5b)” value in series [3] is “Q4”. Moreover, in series [4] (rat), the “LPS % cell toxicity” value worked out at 0%. In series [5], the “Fibrin % cell toxicity” value was 0%.
Take `CC1(C)C2CCC1(CS(=O)(=O)O)C(=O)C2=Cc1ccc(C=C2C(=O)C3(CS(=O)(=O)O)CCC2C3(C)C)cc1` [Ecamsule]: the Fibrin % inhibition in series [1] came out at 20%. Besides, the LPS % inhibition in series [2] was 29%. For the same compound, the “Quadrant (FIG. 5b)” value in series [3] is recorded as “Q4”. Further, the “LPS % cell toxicity” value in series [4] is 0%. Further, the “Fibrin % cell toxicity” value in series [5] is 1%.
The matching figures for `C[C@@H](O)CN(CCN(C[C@@H](C)O)C[C@@H](C)O)C[C@@H](C)O` [Editol]: 24%, 3%, “Q4”, 0% and 1%.
Regarding `CCc1cn([C@H]2C[C@H](O)[C@@H](CO)O2)c(=O)[nH]c1=O` [Edoxudine], the inhibition at 10 µM in series [1] is -10%; in series [2] it was 1%. The “Quadrant (FIG. 5b)” value in series [3] is listed as “Q4”. Moreover, the “LPS % cell toxicity” value in series [4] (rat) was 0%. In series [5], the “Fibrin % cell toxicity” value is 0%.
For the compound `CC[N+](C)(C)c1cccc(O)c1` [Edrophonium], the inhibition at 10 µM was -9% in series [1] and -2% in series [2]. Further, in series [3], the “Quadrant (FIG. 5b)” value is recorded as “Q4”. Moreover, the “LPS % cell toxicity” value in series [4] (rat) was 0%. In addition, the “Fibrin % cell toxicity” value in series [5] worked out at 1%.
Consider `CCC1(C2=NCCN2)Cc2ccccc2O1` (centres unmarked) [Efaroxan, Efaroxan Hydrochloride], for which the Fibrin % inhibition in series [1] worked out at 1%. For the same compound, in series [2], the LPS % inhibition was 5%. Also, in series [3], the “Quadrant (FIG. 5b)” value was “Q4”. For the same compound, the “LPS % cell toxicity” value in series [4] is reported as 0%. The “Fibrin % cell toxicity” value in series [5] came to 1%.
With `O=C1Nc2ccc(Cl)cc2[C@@](C#CC2CC2)(C(F)(F)F)O1` [Efavirenz], the inhibition at 10 µM in series [1] was -7%; in series [2], -5%. The “Quadrant (FIG. 5b)” value in series [3] was “Q4”. Further, the “LPS % cell toxicity” value in series [4] (rat) came out at 0%. Further, in series [5], the “Fibrin % cell toxicity” value is 1%.
The matching figures for `CCOC(=O)COc1ccc2c(=O)cc(-c3ccccc3)oc2c1` [Efloxate]: -8%, -1%, “Q4”, 0% and 1%.
The matching figures for `CN1CCC[C@@H]1Cc1c[nH]c2ccc(CCS(=O)(=O)c3ccccc3)cc12` [Eletriptan Hydrobromide]: -14%, 12%, “Q4”, 0% and 1%.
The corresponding values for `CC(=O)[C@H]1CC[C@H]2[C@@H]3CC[C@@H]4C[C@H](O)CC[C@]4(C)[C@H]3CC[C@]12C` [Eltanolone] are -6%, 4%, “Q4”, 0% and 1%.
Take `C=CCOC(Cn1ccnc1)c1ccc(Cl)cc1Cl` (centres unmarked) [Enilconazole]: the values for the inhibition at 10 µM in series [1] and in series [2] were 24% and 15%, respectively. Moreover, the “Quadrant (FIG. 5b)” value in series [3] is given as “Q4”. Also, the “LPS % cell toxicity” value in series [4] (rat) is reported as 1%. In series [5], the “Fibrin % cell toxicity” value is recorded as 1%.
For `O=C(NCCCN1CCOCC1)c1ccc(Cl)cc1` [Eprobemide], the results for the inhibition at 10 µM in series [1] and in series [2] were -24% and 21%, respectively. For the same compound, in series [3], the “Quadrant (FIG. 5b)” value was “Q4”. In series [4] (rat), the “LPS % cell toxicity” value is given as 0%. The “Fibrin % cell toxicity” value in series [5] is on record as 0%.
With `O=S(=O)([O-])CCCS(=O)(=O)[O-].[Na+].[Na+]` [Eprodisate Disodium], the Fibrin % inhibition in series [1] is −3%. In addition, the LPS % inhibition in series [2] was determined as 12%. In addition, the “Quadrant (FIG. 5b)” value in series [3] is given as “Q4”. In addition, in series [4], the “LPS % cell toxicity” value was determined as 0%. Also, the “Fibrin % cell toxicity” value in series [5] came to 1%.
As to `CCCCc1ncc(/C=C(\Cc2cccs2)C(=O)O)n1Cc1ccc(C(=O)O)cc1` [Eprosartan], the results for the inhibition at 10 µM in series [1] and in series [2] were -29% and -8%, respectively. Further, in series [3], the “Quadrant (FIG. 5b)” value was “Q4”. Further, the “LPS % cell toxicity” value in series [4] (rat) was determined as 0%. Also, the “Fibrin % cell toxicity” value in series [5] was 1%.
The corresponding values for `C[C@]12CC[C@H]3C(=CCc4cc(O)ccc43)[C@@H]1CCC2=O` [Equilin] are 1%, 15%, “Q4”, 0% and 0%.
The corresponding values for `O=C(O)CSCC(=O)NC1CCSC1=O` (centres unmarked) [Erdosteine] are 2%, 13%, “Q4”, 0% and 1%.
With `C[C@@H](CO)NC(=O)[C@@H]1C=C2c3cccc4[nH]cc(c34)C[C@H]2N(C)C1` [Ergonovine Maleate], in series [1] (10 µM), the Fibrin % inhibition is given as 9%. Moreover, the LPS % inhibition in series [2] (10 µM) is on record as 7%. Moreover, the “Quadrant (FIG. 5b)” value in series [3] is given as “Q4”. In series [4] (rat), the “LPS % cell toxicity” value was 0%. Besides, the “Fibrin % cell toxicity” value in series [5] is 1%.
Turning to `C[C@@H](CO)NC(=O)[C@@H]1C=C2c3cccc4[nH]cc(c34)C[C@H]2N(C)C1` [Ergonovine], the Fibrin % inhibition in series [1] (10 µM) is −23%. Moreover, the LPS % inhibition in series [2] (10 µM) is −10%. In series [3], the “Quadrant (FIG. 5b)” value was “Q4”. The “LPS % cell toxicity” value in series [4] (rat) turned out to be 0%. Besides, the “Fibrin % cell toxicity” value in series [5] was 1%.
